PubChem BioAssay AID468 (The Scripps Research Institute Molecular Screening Center, 2006)
Active and inactive are the calls of the source. No rule for the calls is given here.

These compounds were tested against Sphingosine 1-phosphate receptor 1 (Homo sapiens) (UniProt P21453) (assay: direct activation of human S1P1 – cell-based, agonist mode, 60K MLSMR set, dose response (AID 468)). Details: S1P1 agonist cell-based assay.
Sphingosine 1-phosphate receptor 1 (Homo sapiens), sequence (P21453 whole entry, looked up): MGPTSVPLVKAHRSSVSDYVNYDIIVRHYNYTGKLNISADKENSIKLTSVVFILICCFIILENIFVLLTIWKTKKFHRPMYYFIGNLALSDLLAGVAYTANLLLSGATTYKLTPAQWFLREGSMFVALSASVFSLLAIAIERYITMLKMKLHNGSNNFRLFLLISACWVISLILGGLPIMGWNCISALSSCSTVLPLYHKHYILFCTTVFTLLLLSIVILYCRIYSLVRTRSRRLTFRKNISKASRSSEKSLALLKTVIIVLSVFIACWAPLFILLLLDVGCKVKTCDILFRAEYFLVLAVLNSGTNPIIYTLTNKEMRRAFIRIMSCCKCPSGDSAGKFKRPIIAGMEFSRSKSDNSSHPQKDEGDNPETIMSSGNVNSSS
For `O=C1C2C3C=CC(CO)(O3)C2C(=O)N1c1ccccc1-c1ccccc1` (stereo not drawn), the EC50 was 5.47 µM. In the case of `CC1=C(C(=O)OCc2ccc3c(c2)OCO3)C(c2ccccc2)NC(=O)N1` (stereo not drawn), the EC50 is reported as 1.84 µM. `CC1(C)CC(=O)C(C=Nc2ccc3[nH]ncc3c2)=C(O)C1` showed an EC50 of 5.07 µM. In the case of `COC(=O)CC1SC(=O)NC1=Nc1ccccc1` (stereo not drawn), the EC50 is reported as > 95 µM (inactive). For `CCOc1ccc(C(C)=O)cc1N1C(=O)C2C3C=CC(O3)C2C1=O` (stereo not drawn), the EC50 was “inactive”. In the case of `COc1ccc(/C(O)=C2/C(=O)C(=O)N(CC3CCCO3)C2c2cccc(OC)c2)cc1` (stereo not drawn), the EC50 is reported as > 95.1 µM (inactive). In the case of `CCC(=NCc1ccc2c(c1)OCO2)c1c(O)n(C2CCCCC2)c(=O)[nH]c1=O`, the EC50 is reported as 6.81 µM. In the case of `CCC(=NCCOc1ccc(Cl)cc1)c1c(O)n(C)c(=O)n(C)c1=O`, the EC50 is reported as 5.04 µM. For `COc1ccc(/C=N/O)cc1COc1ccc(NC(C)=O)cc1`, the EC50 was > 95 µM (inactive). With `Cc1[nH]nc2c1C1(C(=O)N(Cc3ccc(Cl)cc3)c3ccccc31)C(C#N)=C(N)O2` (stereo not drawn) the EC50 was “inactive”. Compound `C/C(N)=C(/C#N)C(=O)CSc1nnc(SCc2ccc(Cl)cc2)s1` has an EC50 of 8.95 µM. With `COc1ccc(N2C(=O)CC(Sc3ncn[nH]3)C2=O)c(OC)c1` (stereo not drawn) the EC50 was “inactive”. `C/C(N)=C(/C#N)C(=O)CSc1nc2cc(Cl)ccc2s1` was tested, and the EC50 was “inactive”. For `CCCCc1ccc(C2C(C#N)=C(N)SC(N)=C2C#N)s1`, the EC50 was “inactive”. `CCC(=NC(C)c1ccccc1)c1c(O)n(C)c(=O)n(C)c1=O` (stereo not drawn) was tested, and the EC50 was “inactive”. `CC1=C(C(=O)OCc2ccc3c(c2)OCO3)C(c2ccc(F)cc2)NC(=O)N1` (stereo not drawn) gave an EC50 of 0.437 µM. In the case of `CCOC(=O)c1cccc2c1-c1ccccc1/C2=N/O`, the EC50 is reported as “inactive”. In the case of `CC(=O)Oc1ccc(N2C(=O)C3C(C2=O)C2(C)C=CC3(C)O2)cc1` (stereo not drawn), the EC50 is reported as “inactive”.
